Results reported in patent US7262183B2, “Substituted 5-membered n-heterocyclic compounds and their uses for treating or preventing neurodegenerative diseases” (Instititute of Pharmacology and Toxicology, priority 2001, dated 2007).

Tests used:
[1] = tested on: adult mice sympathetic nerve endings damaged by 6-hydroxy-dopamine (6-OHDA); assay: adult mice sympathetic nerve endings damaged by 6-OHDA, residual noradrenaline in submaxillary glands; assay type: in vivo; conditions: 10 mg/kg subcutaneous injection; 6-OHDA 8 mg/kg intraperitoneal; measured two weeks after last administration, HPLC-electrochemical detector
Protocol: The neurotrophic activity of the compounds of the present invention can also be determined in several animal pharmacological models in vivo, such as the model of adult mice sympathetic nerve endings damaged by 6-hydroxy-dopamine (6-OHDA).
Kunming species female mice (□) having a body weight of 18-22 g are randomly divided into the following groups: normal control group, model control group, FK506 (2 mg/kg) group, and the group of compound of the present invention (10 mg/kg) (10 mice per group). The mice are administrated with 6-OHDA (8 mg/kg) by intraperitoneal injection before 4 hours and after 4 continuous days of subcutaneous injection of the compound, while the control groups are administrated with the equivalent quantity of carrier by subcutaneous injection. After two weeks of the last administration, the mice are killed by luxation, and the two submaxillary glands of each of the mice are rapidly excised and weighed, placed in a glass grinder, then is homogenated with a homogenating liquid containing internal-standard, and centrifuged at 2000 g for 30 minutes. 20 μL of the obtained supernatant is directly injected in an HPLC-electrochemical detector to measure the content of noradrenaline (NE) in the submaxillary glands of the mice. […]

[2] = tested on: chick embryos dorsal root ganglia; assay: chick embryos dorsal root ganglion cultures free of serum, neurite process growth; assay type: cell-based; conditions: for Average scoring: 48 h, neurite score 0-3, average of 10 ganglia, control (NGF only) 0.33
Protocol: The neurotrophic activity of compounds of the present invention can be determined through several biological models in vitro, e.g. the model of chick embryos dorsal root ganglion cultures free of serum in vitro.
In a sterile environment, dorsal root ganglia were dissected from chick embryos of 8 days gestation and inoculated in rat rail collagen coated culture bottles (5 to 6 dorsal root ganglia per bottle, and two bottles per dosage). After 1 hour of attachment in a 37° C., 5% CO2 incubator, NGF (0.15 ng/ml) containing culture medium free of serum (DMEM) and the compound of the present invention were added. The control groups were treated only with the same amount of NGF and culture medium. […] Five to six DRGs were cultured per bottle, and each treatment was performed in duplicate. The results of illustrative compound of example 15 promoting the growth of chick embryos dorsal root ganglia processes were outlined in table 1, wherein the scoring is the average scoring of 10 ganglia.
FIG. 1 indicates the growth of neurites of chick dorsal root ganglia under various dosages of the compound of example 15. A represents that chick embryos dorsal root ganglia with rare processes is caused by the treatment of sole NGF (0.15 ng/mL).

| SMILES | level of residual NE in the submaxillary glands of the mice (FIG. 2) [1] | Average scoring ([2]; 1 pM compound + NGF (0.15 ng/mL) in DMEM) | growth of neurites of chick dorsal root ganglia (FIG. 1) ([2]; 1 pM compound + NGF (0.15 ng/mL), FIG. 1 B) | Average scoring ([2]; 10 pM compound + NGF (0.15 ng/mL) in DMEM) | growth of neurites of chick dorsal root ganglia (FIG. 1) ([2]; 10 pM compound + NGF (0.15 ng/mL), FIG. 1 C, compared with 1 pM) | Average scoring ([2]; 100 pM compound + NGF (0.15 ng/mL) in DMEM) | growth of neurites of chick dorsal root ganglia (FIG. 1) ([2]; 100 pM compound + NGF (0.15 ng/mL), FIG. 1 D, compared with A, B and C) |
| --- | --- | --- | --- | --- | --- | --- | --- |
| CC(C)(C)C(=O)C(=O)N1CSC(C)(C)[C@@H]1C(=O)OCCCc1ccccc1 [Example 17, 3-phenyl-1-propyl (2S)-5,5-dimethyl-1-(3,3-dimethyl-1,2-dioxobutyl)-2-(4-thiazolidine)carboxylate] | raise the residual NE level | – | – | – | – | – | – |
| CC(C)(C)C(=O)C(=O)N1CSC(C)(C)[C@@H]1C(=O)OCCCc1cccnc1 [Example 15, 3-(3-pyridyl)-1-propyl (2S)-5,5-dimethyl-1-(3,3-dimethyl-1,2-dioxobutyl)-2-(4-thiazolidine)carboxylate] | raise the residual NE level | 1.00 | enhances the improving effect of sole NGF (0.15 ng/mL) on the growth of neurites | 1.31 | stronger effect on the growth of neurites | 1.57 | strongest effect |
